Test results reported in patent publication US9527066B2, “Dihydroxybipyridine complexes of ruthenium and iridium for water oxidation and hydrogenation” (The Board of Trustees of The University of Alabama, priority 2011, dated 2016).
Where two headings read alike, the source gives them in different places.

Tests used:
[1] = Water oxidation with sodium periodate, Clark electrode
Text: Chem. Soc., 2010, vol. 132, pp. 16017-16029:

[2] = 5 μM catalyst; for 10 min: TOF / 10 min: TON / TOF: 20 mM NaIO4, pH 5.6, 25° C.; for TOF / Initial Rate: first 30 sec; for Initial Rate: 20 mM NaIO4, pH 5.6 NaOAc buffer, 25° C.
Method: Catalysts were used for water oxidation with NaIO4 as an oxidant.
20 mM of NaIO4 was added. The pH was 5.6 and NaOAc was used as a buffer. The vessel and catalyst solution were maintained at 25° C.

[3] = UV-Vis titration, Na2HPO4/HCl buffers pH 2.5-9.2; simultaneous removal of both ligand protons
Method: Approximately 100 mL of 0.1M Na2HPO4 was put into a beaker and stirred and the pH was recorded. 2 mL of 0.0000034M catalyst was put into 10 mL volumetric flasks (final concentration of Ir complex is 6.8 μM). 100 mL of 0.1M Na2HPO4 was titrated with 0.1M HCl until it reached the desired buffer pH (every 0.5 pH unit). At each desired buffer pH, 8 mL of the solution was put into the volumetric flasks. pH's used were as follows: 9.2, 8.0, 7.5, 7.0, 6.5, 6.0, 5.5, 5.0, 4.5, 4.0, 3.5, 3.0, 2.5. […] UV/Vis spectra for each solution were obtained (FIG. 5).

[4] = for TOF / TON: 5 μM catalyst, 20 mM NaIO4 in 180 mM NaOAc; for Enhancement as pH change from 3 to 6: ratio pH 6 to pH 3
Method: Catalysts of the formula Cp*IrCl(n,n′-DHBP)]Cl according to the present invention were used for water oxidation at a variety of different pH levels. These catalysts were the same catalysts as the first three catalysts used in Example 6.5 μM catalyst with 20 mM NaIO4 in 180 mM NaOAc were employed.

[5] = 5 μM catalyst
Method: A catalyst according to the present invention [Cp*Ir^III(DHBP)Cl]Cl was used for water oxidation with cerium (IV) ammonium nitrate (CAN) as the oxidant. The reaction progress was monitored by a Clark electrode to measure the increase in dissolved oxygen with time in a sealed vessel. For longer reaction times, the amount of oxygen that builds up in the headspace is significant and was measured by pressure transducers. In the first set of experiments, the concentration of catalyst was 5 μM and CAN=67 mM at pH=6.0. […] A prior art catalyst, catalyst 15(Cat 15 in FIG. 4, “Cat 15+67 mM CAN”) was used as a comparison. The prior art Cat 15 is represented by the formula taken from Blakemore, et al., “Half-sandwich iridium complexes for homogeneous water-oxidation catalysis,” J. Am. Chem. Soc., 2010, vol. 132, pp. 16017-16029:
In a second set of experiments, the concentration of catalyst was 5 μM. Cat5 was used in a buffered aqueous solution at pH 5.6 with 17 mM sodium periodate as the oxidant, as shown in green in FIG. 4.

[6] = 17 mM NaIO4 as oxidant, 25° C.
Text: Rates were most linear from 30 to 240 seconds. […] In this analysis, the slope corresponds to reaction order in Ir catalyst.

[7] = Hydrogenation of acetophenone, comparison of five catalysts; conditions: 0.02 mmole catalyst, 85-90° C., 24 hours unless x=18, y=20, z=21 hours
Method: Five catalysts were used to catalyze hydrogenation of acetophenone. The first four are represented by the following structures:
These catalysts are represented as 1-4 in Table 4. The last catalyst is [(η^6-p-cymene)RuCl2]2. The reaction mixture contained 0.02 mmole catalyst, 10 mmole of NaO2CH or 2 mmole of KOH, 0.667 mmole of 1,3,4-trimethoxybenzene as internal standard, and 10 mL solvent. The reaction was carried out under N2 at 85-90° C. for 24 hours unless otherwise stated (x=18 hours, y=20 hours, z=21 hours). The percentage conversion was determined by ^1H-NMR as an average of two trials.

[8] = Hydrogenation of ketones with NaO2CH in MeOH:water; conditions: for % conversion: 1 mole % catalyst, 10:90 MeOH:water, NaO2CH, reflux 16-18 hours
Method: (§1) [drawing 11] was used for hydrogenation of several different organic substrates. For ketones, the reaction was carried out by mixing 1 mole % of catalyst, 10:90 of MeOH:water and NaO2CH, and heated to reflux for 16-18 hours. For imines, the reaction was carried out by mixing 1 mole % of catalyst, THF, NEt3 base (5 molar %) and 75 psi H2(g), with heating to reflux for 48 hours. The catalyst provided a very high percentage conversion for ketones in water.

[9] = Hydrogenation of imines with H2 in THF; conditions: substrate N-benzylidene-methylamine
Method: as §1

[10] = Hydrogenation of acetophenone under various conditions; conditions: 90° C., 16-17 hours
Method: [drawing 12] was used to catalyze hydrogenation of acetophenone under various conditions. For each mole of the substrate, 5 moles of a base is used. The reaction is carried out at 90° C. for 16-17 hours.

[11] = first 30 seconds of reaction, 5 μM catalyst, 78 mM CAN, 25° C.
[12] = first 10 minutes of reaction, 5 μM catalyst, 78 mM CAN, 25° C.
[13] = 5 μM catalyst, pH 5.6 buffered, 17 mM sodium periodate
[14] = substrate 2-methoxy-acetophenone
[15] = substrate 4-methoxy-acetophenone

## Cc1c(C)c(C)[c-](C)c1C.[Cl-].[Cl][Ir+2].c1ccc(-c2ccccn2)nc1 [Cat15, reference compound]
[1]; 5 μM catalyst, pH 5.6, 17 mM oxidant ("under these conditions")
  activity in water oxidation (in words): not active

## Cc1c(C)c(C)[c-](C)c1C.Oc1ccnc(-c2cc(O)ccn2)c1.[Cl-].[Cl-].[Ir+3] [[Cp*IrCl(4,4′-DHBP)]Cl, [Cp*Ir(4,4′-dhbp)Cl]Cl]
[11]
  Initial Rate: 81.25 ± 12 μmole O2 L^−1 min^−1
  TOF: 16.33 ± 12 min⁻¹
[12]
  TOF: 4.33 min⁻¹
  TON: 43.34
[2]
  10 min: TOF: 11.87 min⁻¹
  10 min: TON: 118.70
  TOF: 21.35 ± 3 min⁻¹
  Initial Rate: 106.25 ± 3 μM O2 min^−1
[3]
  pKa: 4.4±0.2
[4]; pH = 3 for 10 minutes
  TOF: 0 min⁻¹
  TON: 0
[4]; pH = 6 for 10 minutes
  TOF: 14 min⁻¹
  TON: 124
[4]
  Enhancement as pH change from 3 to 6: >124X

## Cc1c(C)c(C)[c-](C)c1C.Oc1cccc(-c2cccc(O)n2)n1.[Cl-].[Cl][Ir+2] [[Cp*IrCl(6,6′-DHBP)]Cl, [Cp*Ir(6,6′-DHBP)Cl]Cl]
[11]
  Initial Rate: 75.00 ± 15 μmole O2 L^−1 min^−1
  TOF: 15.07 ± 15 min⁻¹
[12]
  TOF: 3.89 min⁻¹
  TON: 38.93
[5]; CAN=17 mM
  water oxidation (in words): does not oxidize water appreciably
[5]; CAN=67 mM, pH=6.0
  TOF: 6.4 min⁻¹
  initial rate of oxygen evolution: 31 µM/min
[5]; in 5 min, CAN=67 mM, pH=6.0
  TON: 14
[2]
  10 min: TOF: 9.99 min⁻¹
  10 min: TON: 99.86
  TOF: 10.04 ± 3 min⁻¹
  Initial Rate: 50 ± 3 μM O2 min^−1
[3]
  pKa: 4.6±0.1
[4]; pH = 3 for 10 minutes
  TOF: 0.14 min⁻¹
  TON: 1.3
[4]; pH = 6 for 10 minutes
  TOF: 14 min⁻¹
  TON: 120
[4]
  Enhancement as pH change from 3 to 6: 92X
[1]; [13]
  TOF: 6.3 min⁻¹
  initial rate of oxygen generation: 31 µM/min
[1]; at higher NaIO4 concentrations
  TOF: 18 min⁻¹
[1]; at higher NaIO4 concentrations, in 5 mM (so in the source)
  TON: 84
[1]; in 5 min, 5 μM catalyst, pH 5.6, 17 mM sodium periodate
  TON: 36
[6]
  slope of ln(rate) vs. ln([catalyst]) (reaction order in Ir catalyst): 0.94

## Cc1c(C)c(C)[c-](C)c1C.[Cl-].[Cl-].[Ir+3].c1ccc(-c2ccccn2)nc1 [[Cp*IrCl(bipy)]Cl, reference compound]
As stated in text of Example 5
  Initial Rate: 72±3 mole O2 L^−1 s^−1
  turnover frequency (TOF): 14.4±0.7
[2]
  10 min: TOF: 0.064 min⁻¹
  10 min: TON: 0.64
  TOF: 0 ± 3 min⁻¹
  Initial Rate: 0 ± 3 μM O2 min^−1

## Cc1ccc(C(C)C)cc1.Cc1ccc(C(C)C)cc1.[Cl][Ru][Cl].[Cl][Ru][Cl] [[p-cymRuCl2]2, [(η^6-p-cymene)RuCl2]2]
[7]; KOH, ^1PrOH
  % conversion: 100%
[7]; NaO2CH, 10/90 MeOH/H2O
  % conversion: 15%
[7]; NaO2CH, 50/50 MeOH/H2O
  % conversion: 13%
[7]; NaO2CH, H2O
  % conversion: 13%

## Cc1ccc(C(C)C)cc1.Oc1cccc(-c2cccc(O)n2)n1.[Cl-].[Cl][Ru+] [drawing 11]
[8]; [14]
  Turnover frequency: 8.83 h⁻¹
  Turnover number: 53
  % conversion: 53%
[8]; substrate 2′-acetonaphtone
  Turnover frequency: 13.50 h⁻¹
  Turnover number: 81
  % conversion: 81%
[8]; substrate 4-bromo-acetophenone
  Turnover frequency: 16.17 h⁻¹
  Turnover number: 97
  % conversion: 97%
[8]; [15]
  Turnover frequency: 10.71 h⁻¹
  Turnover number: 65
  % conversion: 65%
[8]; substrate acetophenone
  Turnover frequency: 16.17 h⁻¹
  Turnover number: 97
  % conversion: 97%
[9]
  Turnover frequency: 0.63 h⁻¹
  Turnover number: 30
[9]; 1 mole % catalyst, THF, NEt3, 75 psi H2, reflux 48 hours
  % conversion: 30%

## Cc1ccc(C(C)C)cc1.Oc1cccc(-c2cccc(O)n2)n1.[Cl-].[Cl][Ru+] [drawing 12]
[10]; 1 mole % catalyst, NaO2CH, 10/90 MeOH/H2O
  % conversion: 97%
[10]; 1 mole % catalyst, NaO2CH, 50/50 MeOH/H2O
  % conversion: 96%
[10]; 1 mole % catalyst, NaO2CH, H2O
  % conversion: 31%
[10]; 5 mole % catalyst, NaO2CH, H2O
  % conversion: 89%
[10]; 5 mole % catalyst, NaO2CH/HO2CH, H2O
  % conversion: 89%
